For the test, the target named is T1, Blon_0248 (Bifidobacterium longum, UniProt A0ACD7UNL5).
T1 sequence (A0ACD7UNL5 1-449): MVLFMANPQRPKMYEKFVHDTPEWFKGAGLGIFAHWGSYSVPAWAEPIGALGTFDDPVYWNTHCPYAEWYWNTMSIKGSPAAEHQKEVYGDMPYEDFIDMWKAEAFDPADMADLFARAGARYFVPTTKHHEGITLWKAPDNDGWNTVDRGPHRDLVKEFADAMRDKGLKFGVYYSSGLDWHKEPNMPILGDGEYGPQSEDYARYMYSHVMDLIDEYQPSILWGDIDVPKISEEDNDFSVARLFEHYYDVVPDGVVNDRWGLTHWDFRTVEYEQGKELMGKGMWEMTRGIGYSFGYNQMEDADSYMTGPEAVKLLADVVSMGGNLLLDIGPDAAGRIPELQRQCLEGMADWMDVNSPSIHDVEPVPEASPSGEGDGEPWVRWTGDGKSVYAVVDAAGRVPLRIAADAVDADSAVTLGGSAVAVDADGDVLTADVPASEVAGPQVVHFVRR
Put plainly: pNP release, absorbance […] nm. The format is biochemical. To be noted: 50 mM sodium acetate pH 6.0, 37 °C.

Turning to `C[C@@H]1O[C@@H](Oc2ccc([N+](=O)[O-])cc2)[C@@H](O)[C@H](O)[C@@H]1O` [pNP-α-Fuc], the “pNP release, absorbance 405 nm” value is on record as “Both proteins specifically hydrolyzed pNP-α-Fuc, but not any of the other pNP-glycosides tested”.

(Values after PMC8367633 (Journal of Applied Glycoscience, 2020).)
